Key:
[1] = system: motor activity of the rat; assay: Effects on the motor activity of the rat; format: in vivo; conditions: i.p., first half hour after administration
Method: Utilizing these preliminary goods results, the effects of said compounds were studied on the rats motor activity. This experiment permits to obtain a more objective evaluation about the effectiveness of the tested molecules, confirming and specifying the effective dosages, start and duration of the effects.
For these tests too, rats were subdvided into two groups: a control group of rats treated with the solvent and a positive control group consisting of rats treated i.p. with 300 mg/kg/2 ml GHB sodium salt in the aforesaid solvent.
GHB was systematically used as a reference: when administered at the above doses its motor reducing action spans a wide variation range.
Table 3—Effects on the Motor Activity Produced by Some Benzylamido Derivatives of GHB Compared With a 300 mg/kg Dose of GHB (Sedative Dose)
The following table reports data referred to the first half hour after administration. The per cent decreases in motor activity in respect of GHB are reported.

rats = assay: General neuropharmacological profile: behaviour observation (excitation, bursts, sedation) after i.p. administration; format: in vivo; conditions: rat; for Neuropharmacological profile: different dosage levels; for Potency compared with GHB / Duration of action compared with GHB: excitatory effects
Method: The tests, which were intended to evaluate the neuropharmacological activity of the amides of the invention, were conducted on rats, because most of the data available in the literature concern said animal species.
The time at which the effects started, their intensity and duration were recorded.
Molecules were evaluated by systematically using a control group, in which rats had been treated with the utilized solvent, and a positive control group, in which rats had been treated intraperitoneally (i.p.) with a standard dose of GHB sodium salt (100 mg/kg) in 2 ml. GHB and the assayed amides were administered in 50% DMSO in distilled water.
Said dose of drug, used as a reference, produced typical excitatory effects, characterized by the onset of generic excitation accompanied by more particular paroxysms, the so-called BURSTS of excitation.
Generic excitation was characterized by an increased motor activity, extremely sharp and jerky movements, higher reactivity and shakes.
“Bursts” of excitation were typical and well recognizable: the animals fought and frantically pursued each other.
Recordings concerned the number of “bursts”, the time of their onset after treatment, their intensity, the partial or total involvement of treated animals, the duration of the single episodes.
The sedation produced by higher doses of the molecules examined was evaluated analogously: time of onset, degree of sedation, partial or total involvement, duration of the effects.
Table 2—General Neuropharmacological Profile of Benzylamido Derivatives of GHB Compared With a 100 mq/kg Dose of GHB (Excitatory Dose)

[2] = cited from earlier work

SMILES	< % (per cent decrease in motor activity) ([1]; dose 300 mg/kg)	Neuropharmacological profile (rats)	Excitatory effects Duration (rats; dose 25-50 mg/kg)	Excitatory effects Start (rats; dose 25-50 mg/kg)	Potency compared with GHB (rats)	< % (per cent decrease in motor activity) ([1]; dose 100 mg/kg)	also measured
CCCNC(=O)CCCO [Compound 2)]	82%						
Nc1ccc(CNC(=O)CCCO)cc1 [Compound 3)]		biphasic neuropharmacological profile	60 min	30 min	more powerful than GHB		
O=C(CCCO)NCc1ccc(Cl)cc1 [Compound 4)]	80%					0%	Excitatory effects Duration (rats; dose 50-100 mg/kg): 45 min; Excitatory effects Start (rats; dose 50-100 mg/kg): 30 min
Cc1ccc(CNC(=O)CCCO)cc1 [Compound 5)]	77%	biphasic neuropharmacological profile					Potency (dose) and duration of action compared with GHB (rats): substantially superimposable to GHB acid; Dosage required for excitatory effects (rats; GHB reference excitatory dose 100 mg/kg): 100 mg/kg; Excitatory effects Start (rats; dose 100 mg/kg): 20 min
COc1ccc(CNC(=O)CCCO)cc1 [Compound 6)]	57%		45 min	45 min			
COCCCC(=O)NCc1ccc(C)cc1 [Compound 7)]		biphasic neuropharmacological profile		20 min	more powerful than GHB	76%	Potency (dose) and duration of action compared with GHB (rats): better than those of GHB; Duration of action compared with GHB (rats): longer duration of action
COc1cc(CNC(=O)CCCO)cc(OC)c1 [Compound 8)]	68%						Excitatory effects Duration (rats; dose 100 mg/kg): 30 min; Excitatory effects Start (rats; dose 100 mg/kg): 60 min
O=C(CCCO)NCc1cccnc1 [Compound 9)]	72%						Excitatory effects Duration (rats; dose 100 mg/kg): 15 min; Excitatory effects Start (rats; dose 100 mg/kg): 60 min; < % (per cent decrease in motor activity) ([1]; dose 100-200 mg/kg): 0%
COCCCC(=O)NCc1ccccc1 [Compound 10)]		biphasic neuropharmacological profile	30 min	20 min	more powerful than GHB	42%	
COCCCC(=O)NCc1ccc(Cl)cc1 [Compound 11)]		biphasic neuropharmacological profile	60 min	20 min	more powerful than GHB	70%	
CCOCCCC(=O)NCc1ccc(C)cc1 [Compound 12)]		biphasic neuropharmacological profile	30 min	60 min	more powerful than GHB	54.5%	
CCCOCCCC(=O)NCc1ccc(C)cc1 [Compound 13)]		biphasic neuropharmacological profile				58%	Excitatory effects Duration (rats; dose 100 mg/kg): 30 min; Excitatory effects Start (rats; dose 100 mg/kg): 45 min
COCCCC(=O)NCc1cccc2ccccc12 [Compound 14)]		biphasic neuropharmacological profile	180 min	30 min	more powerful than GHB	75%	Potency (dose) and duration of action compared with GHB (rats): better than those of GHB; Duration of action compared with GHB (rats): longer duration of action; < % (per cent decrease in motor activity) ([1]; dose 50 mg/kg): 65%
COCCCC(=O)NCc1ccc(C(F)(F)F)cc1 [Compound 15)]		biphasic neuropharmacological profile		20 min	more powerful than GHB		Potency (dose) and duration of action compared with GHB (rats): better than those of GHB; Duration of action compared with GHB (rats): longer duration of action; < % (per cent decrease in motor activity) ([1]; dose 25-50 mg/kg): 64%
O=C(O)CCCO [GHB, γ-hydroxybutyric acid]		causes excitation at relatively low doses and sedation at higher doses					Duration of action (excitatory effects) (rats; GHB reference): 1 h; Maximum concentration peak, time after administration ([2]; absorption by the gastroenteric apparatus): 35 to 40 min; Half-life time ([2]; in vivo): 20 to 25 min
